For this assay, the system named is Vaccinia virus. Put plainly: Antiviral activity against Vaccinia virus infected in HEL cells assessed as reduction of virus-induced cytopathogenicity. Type of assay: functional, organism-based. The conditions noted are these: Orthopoxvirus vaccinia.

For `CCOP(=O)(OCC)[C@@H]1C[C@H](C(=O)Nc2cc3c4c(cccc4c2)C(=O)N(CCN(C)C)C3=O)ON1C` (racemic), the EC50 is > 45 µM.

For the compound `CCOP(=O)(OCC)[C@@H]1C[C@@H](C(=O)Nc2cc3c4c(cccc4c2)C(=O)N(CCN(C)C)C3=O)ON1C` (racemic), the EC50 is > 45 µM.

Take `CCOP(=O)(OCC)[C@@H]1C[C@H](C(=O)Nc2cc3c4c(cccc4c2)C(=O)N(CCN2CCCC2)C3=O)ON1C` (racemic): the EC50 was found to be 50 µM.

On to `CCOP(=O)(OCC)[C@@H]1C[C@@H](C(=O)Nc2cc3c4c(cccc4c2)C(=O)N(CCN2CCCC2)C3=O)ON1C` (relative stereo), for which the EC50 was > 45 µM.

Take `Nc1nc2c(ncn2COCCO)c(=O)[nH]1` [ACYCLOVIR]: the EC50 is > 250 µM.

Regarding `O=c1[nH]c(=O)n([C@H]2C[C@H](O)[C@@H](CO)O2)cc1/C=C/Br` [BRIVUDINE], the EC50 was determined as 17 µM.

Regarding `Nc1ccn(C[C@@H](CO)OCP(=O)(O)O)c(=O)n1` [CIDOFOVIR], the EC50 is 22 µM.

Regarding `Nc1nc2c(ncn2COC(CO)CO)c(=O)[nH]1` [GANCICLOVIR], the concentration for a half-maximal effect (EC50) was > 100 µM.
